Assay results taken from article PMC11596355, “Virtual Screening Approaches to Identify Promising Multitarget-Directed Ligands for the Treatment of Autism Spectrum Disorder” (Molecules, 2024).

Assays:
human D2sR (D2shortR) = target: T1, human D2sR (D2shortR) (Homo sapiens, UniProt P14416); experiment: [3H]spiperone displacement, CHO-K1 membranes; format: binding; conditions: read-out: D2sR pKi ± SEM ^b (converted)
T1 construct: gene DRD2; full-length short isoform stably expressed in CHO-K1 cells, membrane fraction
Source text: [3H]spiperone displacement, CHO-K1 membranes on human D2sR (D2shortR)

human D3R = target: T2, human D3R (Homo sapiens, UniProt P35462); experiment: [3H]spiperone displacement, CHO-K1 membranes; format: binding; conditions: read-out: D3R pKi ± SEM ^b (converted)
T2 construct: gene DRD3; full-length, stably expressed in CHO-K1 cells, membrane fraction
Source text: [3H]spiperone displacement, CHO-K1 membranes on human D3R

T1 sequence (P14416 1-414 isoform P14416-2): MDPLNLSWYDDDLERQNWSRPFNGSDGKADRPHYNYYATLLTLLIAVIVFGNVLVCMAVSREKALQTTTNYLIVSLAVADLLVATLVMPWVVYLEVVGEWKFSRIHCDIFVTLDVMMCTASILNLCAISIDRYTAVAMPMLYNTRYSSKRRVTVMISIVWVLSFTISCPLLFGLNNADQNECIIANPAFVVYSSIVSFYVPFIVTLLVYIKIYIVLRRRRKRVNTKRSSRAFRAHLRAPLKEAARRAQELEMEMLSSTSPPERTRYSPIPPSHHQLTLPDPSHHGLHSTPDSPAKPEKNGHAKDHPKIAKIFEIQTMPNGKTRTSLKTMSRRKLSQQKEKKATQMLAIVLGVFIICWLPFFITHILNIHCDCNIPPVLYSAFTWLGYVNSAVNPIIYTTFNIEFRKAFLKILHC
T2 sequence (P35462 whole entry): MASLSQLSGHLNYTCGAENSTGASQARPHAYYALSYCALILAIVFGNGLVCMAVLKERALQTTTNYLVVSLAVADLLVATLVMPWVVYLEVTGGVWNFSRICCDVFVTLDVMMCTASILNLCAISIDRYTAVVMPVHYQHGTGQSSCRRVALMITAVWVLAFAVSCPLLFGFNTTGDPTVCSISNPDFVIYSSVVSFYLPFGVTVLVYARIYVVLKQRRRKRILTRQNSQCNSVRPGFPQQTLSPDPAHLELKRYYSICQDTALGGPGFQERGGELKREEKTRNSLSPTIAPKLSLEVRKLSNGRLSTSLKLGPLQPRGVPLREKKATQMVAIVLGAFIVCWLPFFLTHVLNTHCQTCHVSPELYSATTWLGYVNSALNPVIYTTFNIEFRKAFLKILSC

For `N=C(N)N(CCCCN1CCN(CCCCN(Cc2ccc(C(F)(F)F)cc2)C(=N)N)CC1)Cc1ccc(C(F)(F)F)cc1` [compound 30], which Ki (human D2sR (D2shortR)) is on record?
The Ki was 0.759 µM.

What about the Ki (human D3R) of the same compound?
The Ki was 14.5 µM.
